Experiments:
Assay in all cases: WST-1 cell viability assay, 48-h incubation
Type in all cases: cell-based, human
[1] = system: A549 (non-small cell lung carcinoma); conditions: A549, WST-1, 48 h, vs. vehicle; even at 3 µM in some (unnamed) cell lines
Description: (§1) To test the biological activity of the thia-analogous indirubin N-glycosides that are the focus of the present work, the effects of KD87 and KD85 and their non-glycosylated parent compound KD88 on the viability of various tumor cell lines were initially investigated. The corresponding analyses were performed using the cell lines A375 (melanoma), A431 (skin squamous cell carcinoma), A549 (non-small cell lung carcinoma), U251MG (glioblastoma), and U138MG (glioblastoma).
(§2) Figure 2 Effect of increasing concentrations of KD87 (A), KD85 (B), and KD88 (C) on viability of various cancer cells. A375 (melanoma; black columns), A431 (skin squamous cell carcinoma; dark grey columns), A549 (non-small cell lung carcinoma; grey columns), U251MG (glioblastoma; light grey columns), or U138MG (glioblastoma; white columns) were incubated for 48 h with the appropriate compounds or vehicle followed by determination of cell viability by WST-1 assay. Percent control represents comparison with vehicle-treated cells (100%) in the absence of test substance. Values are mean ± standard error of the mean (SEM) of n = 15 in all panels, except n = 14 for A375 and A431 cells in panel B and n = 14–15 for A375 cells in panel C, from four (A375, A431) or five (A549, U251MG, U138MG) independent experiments. * p ≤ 0.05, ** p ≤ 0.01, *** p ≤ 0.001, **** p ≤ 0.0001 vs. vehicle control; one-way ANOVA with Dunnett’s post hoc test.
(§3) The human melanoma cell line A375 (#300110; RRID:CVCL_0132) as well as the human skin epidermoid carcinoma cell line A431 (#300112; RRID:CVCL_0037) were purchased from CLS Cell Lines Service GmbH (Eppelheim, Germany). The human glioblastoma cell line U251MG (#09063001; RRID:CVCL_0021) was from Sigma-Aldrich Corporation. The human glioblastoma cell line U138MG (#ACC 291; RRID: CVCL_0020) and the human lung carcinoma cell line A549 (#ACC 107, RRID:CVCL_0023) were purchased from DSMZ (Deutsche Sammlung von Mikroorganismen und Zellkulturen GmbH, Braunschweig, Germany).
(§4) Cells were cultured in high-glucose DMEM (with GlutaMAX™-I: A375, A431; with UltraGlutamine^TM I: A549, U251MG, U138MG) supplemented with 10% heat-inactivated FBS, 100 U/mL penicillin, and 100 μg/mL streptomycin and grown in a humidified incubator at 37 °C and 5% CO2. For viability analyses, cells were seeded in 96-well plates at a density of 5000 cells per well in DMEM containing 10% heat-inactivated FBS and cultured for 24 h. All cell experiments with the specific substances were performed in serum-free DMEM supplemented with 100 U/mL penicillin and 100 μg/mL streptomycin, applied after washing the cells with DPBS. The test substances were dissolved in DMSO. The final concentration of DMSO in the incubation media of test substance- and vehicle-treated cells was 1% (v/v).
(§5) After completion of the 48-h incubation, WST-1 reagent (Sigma, Taufkirchen, Germany) was added to the cells to achieve a final dilution of 1:10, and the cells were incubated for an additional 20 min before absorbance was measured at 450 nm, reference wavelength […], using a microplate reader.

U138MG (glioblastoma) = conditions: WST-1, 48 h, vs. vehicle, even at 3 µM in some (unnamed) cell lines
Description: as §1, §2, §3, §4, §5

U251MG (glioblastoma) = conditions: WST-1, 48 h, vs. vehicle, even at 3 µM in some (unnamed) cell lines
Description: as §1, §2, §3, §4, §5

[2] = system: A431 (skin squamous cell carcinoma); conditions: A431, WST-1, 48 h, vs. vehicle; even at 3 µM in some (unnamed) cell lines
Description: as §1, §2, §3, §4, §5

A375 (melanoma) = conditions: A375, WST-1, 48 h, vs. vehicle; even at 3 µM in some (unnamed) cell lines
Description: as §1, §2, §3, §4, §5

Measured: concentration from which significant cytotoxic effects start

O=C1/C(=C2/C(=O)N([C@@H]3O[C@H](CO)[C@@H](O)[C@H](O)[C@H]3O)c3ccccc32)Sc2ccccc21 [KD87, 3-[3′-oxo-benzo[b]thiophen-2′-(Z)-ylidene]-1-(β-D-glucopyranosyl)-oxindole]
≤ 6 µM: all assays above

O=C1/C(=C2/C(=O)N([C@@H]3O[C@H](CO)[C@@H](O)[C@H](O)[C@@H]3O)c3ccccc32)Sc2ccccc21 [KD85, 3-[3′-oxo-benzo[b]thiophene-2′-(Z)-ylidene]-1-(β-D-mannopyranosyl)-oxindole]
≤ 6 µM: all assays above
